Source: patent US20250250299A1, “MACROCYCLIC IMMUNOMODULATORS” (Bristol-Myers Squibb Company, priority 2022, published 2025)
Where a SMILES comes first, the peptide text is derived from it. Bridges are numbered along the chain shown (N, C = ends). [ ]: non-standard residue; d: D form. The star is where a group is joined. X1 = O=C(O)CCCCCCCCCCCCCCCCC(=O)N[C@@H](CCC(=O)NCCOCCOCCOCCOCCOCCOCCOCCOCCOCCOCCOCCn1cc(C*)nn1)C(=O)O; Phe(4-COOH) = N[C@@H](Cc1ccc(C(=O)O)cc1)C(=O)O; Phe(4-CH2NH2) = NCc1ccc(C[C@H](N)C(=O)O)cc1; Bip = N[C@@H](Cc1ccc(-c2ccccc2)cc1)C(=O)O; Phe(3-Me) = Cc1cccc(C[C@H](N)C(=O)O)c1; C12 diacid = O=C(O)CCCCCCCCCCC(=O)*; 4Pal = N[C@@H](Cc1ccncc1)C(=O)O; Cha = N[C@@H](CC1CCCCC1)C(=O)O; Carboxymethyl = O=C(O)C*; NMeA = CN[C@@H](C)C(=O)O; Nle = CCCC[C@H](N)C(=O)O; Orn = NCCC[C@H](N)C(=O)O; Dab = NCC[C@H](N)C(=O)O; Dap = NC[C@H](N)C(=O)O; AEEA = NCCOCCOCC(=O)O

These molecules were tested against T1, human PD-1 (Jurkat-PD-1 cells; binding of PE-labeled human PD-L1-Ig) (Homo sapiens, UniProt Q15116) (assay: Jurkat-PD-1 Cell Binding High-Content Screening Assay). Conditions: Jurkat cell line over-expressing human PD-1; compound 2 h at 37° C., then PE-labeled PD-L1-Ig 20 nM final, 1 hour; read-out: Jurkat hPD1 PDL1 IC50.
T1 construct: expressed in transfected cells; host or cells: Jurkat (Jurkat-PD-1 / Jurkat-hPD-1)
T1 sequence (Q15116 25-288): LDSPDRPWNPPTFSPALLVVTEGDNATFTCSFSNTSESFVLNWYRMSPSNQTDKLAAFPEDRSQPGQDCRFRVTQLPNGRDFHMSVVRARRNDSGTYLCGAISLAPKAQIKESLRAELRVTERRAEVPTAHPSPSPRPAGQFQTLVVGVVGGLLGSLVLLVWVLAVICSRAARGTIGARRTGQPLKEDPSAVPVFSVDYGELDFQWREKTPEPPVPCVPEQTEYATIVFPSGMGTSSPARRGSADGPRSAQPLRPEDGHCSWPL
Method: The ability of the compounds of formula (I) to bind to PD-1 was investigated using a Jurkat-PD-1 Cell Binding High-Content Screening Assay.
Phycoerythrin (PE) was covalently linked to the Ig epitope tag of human PD-L1-Ig and fluorescently-labeled PD-L1-Ig was used for binding studies with a Jurkat cell line over-expressing human PD-1 (Jurkat-PD-1). Briefly, 8×10^3 Jurkat-hPD-1 cells were seeded into 384 well plates in 20 μl of DIVEM supplemented with 10% fetal calf serum. 100 nl of compound was added to cells followed by incubation at 37° C. for 2 h. Then, 5 μl of PE-labeled PD-L1-Ig (20 nM final), diluted in DiVEM supplemented with 10 fetal calf serum. After 1 hour incubation, cells were fixed with […] in dPBS containing 10 µg/mL Hoechst 33342 and then washed 3× in 100 μl dPB S. Data was collected and processed using a Cell Insight NXT High Content Imager and associated software.

IC50	Structure (SMILES)
360 nM	CC(C)C[C@H]1NC(=O)[C@H](C)N(C)C(=O)[C@H](C(C)C)NC(=O)[C@H](Cc2ccc(-c3ccccc3)cc2)NC(=O)[C@H](C(C)C)NC(=O)[C@H](Cc2c[nH]c3ccccc23)NC(=O)[C@H](CC(=O)O)NC(=O)[C@H](Cc2ccncc2)NC(=O)[C@H](Cc2ccc(OCC(=O)O)cc2)NC(=O)CSC[C@@H](C(N)=O)NC(=O)[C@H](CO)NC(=O)[C@H](C(C)C)NC(=O)[C@H](CC2CCCCC2)NC(=O)[C@H](CCCCNC(=O)CCCCCCCCCCC(=O)O)NC1=O [Compound 1044] ({CH2CO}-Y(Carboxymethyl)[4Pal]DWV[Bip]V[NMeA][dL]K(C12 diacid)[Cha]VSC-NH2; thioether N-14)
340 nM	Cc1cccc(C[C@@H]2NC(=O)[C@H](CC(=O)O)NC(=O)[C@H](Cc3ccc(OCC(=O)O)cc3)NC(=O)[C@H](Cc3ccc(OCc4cn(CCOCCOCCOCCOCCOCCOCCOCCOCCOCCOCCOCCNC(=O)CC[C@H](NC(=O)CCCCCCCCCCCCCCCCC(=O)O)C(=O)O)nn4)cc3)NC(=O)CSC[C@@H](C(=O)N[C@@H](CCN)C(N)=O)NC(=O)[C@H](CCC(=O)O)NC(=O)[C@H](C(C)C)NC(=O)[C@H](CC3CCCCC3)NC(=O)[C@H](CCN)NC(=O)[C@@H](CC(C)C)NC(=O)[C@H](CCCN)NC(=O)[C@H](Cc3ccc(OCC(=O)O)cc3)NC(=O)[C@H](Cc3ccc(-c4ccccc4)cc3)NC(=O)[C@H](Cc3ccc(OCC(=O)O)cc3)NC2=O)c1 [Compound 1011] ({CH2CO}-Y(X1)Y(Carboxymethyl)D[Phe(3-Me)]Y(Carboxymethyl)[Bip]Y(Carboxymethyl)[Orn][dL][Dab][Cha]VEC[Dab]-NH2; thioether N-14)
610 nM	Cc1cccc(C[C@@H]2NC(=O)[C@H](CC(=O)O)NC(=O)[C@H](Cc3ccc(OCC(=O)O)cc3)NC(=O)[C@H](CN)NC(=O)CSC[C@@H](C(=O)N[C@@H](CCN)C(=O)NCCOCCOCC(N)=O)NC(=O)[C@H]([C@@H](C)O)NC(=O)[C@H](C(C)C)NC(=O)[C@H](CC3CCCCC3)NC(=O)[C@H](CCN)NC(=O)[C@@H](CC(C)C)NC(=O)[C@H](COCc3cn(CCOCCOCCOCCOCCOCCOCCOCCOCCOCCOCCOCCNC(=O)CC[C@H](NC(=O)CCCCCCCCCCCCCCCCC(=O)O)C(=O)O)nn3)NC(=O)[C@H](Cc3ccc(OCC(=O)O)cc3)NC(=O)[C@H](Cc3ccc(-c4ccccc4)cc3)NC(=O)[C@H](Cc3ccc(OCC(=O)O)cc3)NC2=O)c1 [Compound 1043] ({CH2CO}-[Dap]Y(Carboxymethyl)D[Phe(3-Me)]Y(Carboxymethyl)[Bip]Y(Carboxymethyl)S(X1)[dL][Dab][Cha]VTC[Dab][AEEA]-NH2; thioether N-14)
96 nM	CCCC[C@@H]1NC(=O)CSC[C@@H](C(=O)N[C@@H](CCN)C(N)=O)NC(=O)[C@H](CCC(=O)O)NC(=O)[C@H](C(C)C)NC(=O)[C@H](CC2CCCCC2)NC(=O)[C@H](CCN)NC(=O)[C@@H](CC(C)C)NC(=O)[C@H](CCCN)NC(=O)[C@H](Cc2ccc(C(=O)O)cc2)NC(=O)[C@H](Cc2ccc(-c3ccccc3)cc2)NC(=O)[C@H](Cc2ccc(OCc3cn(CCOCCOCCOCCOCCOCCOCCOCCOCCOCCOCCOCCNC(=O)CC[C@H](NC(=O)CCCCCCCCCCCCCCCCC(=O)O)C(=O)O)nn3)cc2)NC(=O)[C@H](Cc2cccc(C)c2)NC(=O)[C@H](CC(=O)O)NC(=O)[C@H](Cc2ccc(C(=O)O)cc2)NC1=O [Compound 1020] ({CH2CO}-[Nle][Phe(4-COOH)]D[Phe(3-Me)]Y(X1)[Bip][Phe(4-COOH)][Orn][dL][Dab][Cha]VEC[Dab]-NH2; thioether N-14)
870 nM	CC(C)C[C@H]1NC(=O)[C@H](C)N(C)C(=O)[C@H](CCCCNC(=O)CCCCCCCCCCC(=O)O)NC(=O)[C@H](Cc2ccc(-c3ccccc3)cc2)NC(=O)[C@H](C(C)C)NC(=O)[C@H](Cc2c[nH]c3ccccc23)NC(=O)[C@H](CC(=O)O)NC(=O)[C@H](Cc2ccncc2)NC(=O)[C@H](Cc2ccc(OCC(=O)O)cc2)NC(=O)CSC[C@@H](C(N)=O)NC(=O)[C@H](CO)NC(=O)[C@H](C(C)C)NC(=O)[C@H](CC2CCCCC2)NC(=O)[C@H](CC(N)=O)NC1=O [Compound 1039] ({CH2CO}-Y(Carboxymethyl)[4Pal]DWV[Bip]K(C12 diacid)[NMeA][dL]N[Cha]VSC-NH2; thioether N-14)
720 nM	Cc1cccc(C[C@@H]2NC(=O)[C@H](CC(=O)O)NC(=O)[C@H](Cc3ccc(OCc4cn(CCOCCOCCOCCOCCOCCOCCOCCOCCOCCOCCOCCNC(=O)CC[C@H](NC(=O)CCCCCCCCCCCCCCCCC(=O)O)C(=O)O)nn4)cc3)NC(=O)[C@H](CCCNC(=N)N)NC(=O)CSC[C@@H](C(=O)N[C@@H](CCN)C(N)=O)NC(=O)[C@H](CCC(=O)O)NC(=O)[C@H](C(C)C)NC(=O)[C@H](CC3CCCCC3)NC(=O)[C@H](CCN)NC(=O)[C@@H](CC(C)C)NC(=O)[C@H](CCCN)NC(=O)[C@H](Cc3ccc(OCC(=O)O)cc3)NC(=O)[C@H](Cc3ccc(-c4ccccc4)cc3)NC(=O)[C@H](Cc3ccc(OCC(=O)O)cc3)NC2=O)c1 [Compound 1009] ({CH2CO}-RY(X1)D[Phe(3-Me)]Y(Carboxymethyl)[Bip]Y(Carboxymethyl)[Orn][dL][Dab][Cha]VEC[Dab]-NH2; thioether N-14)
100 nM	Cc1cccc(C[C@@H]2NC(=O)[C@H](CC(=O)O)NC(=O)[C@H](Cc3ccc(OCC(=O)O)cc3)NC(=O)[C@H](Cc3c[nH]cn3)NC(=O)CSC[C@@H](C(=O)N[C@@H](CCN)C(N)=O)NC(=O)[C@H](Cc3ccc(OCc4cn(CCOCCOCCOCCOCCOCCOCCOCCOCCOCCOCCOCCNC(=O)CC[C@H](NC(=O)CCCCCCCCCCCCCCCCC(=O)O)C(=O)O)nn4)cc3)NC(=O)[C@H](C(C)C)NC(=O)[C@H](CC3CCCCC3)NC(=O)[C@H](CCN)NC(=O)[C@@H](CC(C)C)NC(=O)[C@H](CCCN)NC(=O)[C@H](Cc3ccc(OCC(=O)O)cc3)NC(=O)[C@H](Cc3ccc(-c4ccccc4)cc3)NC(=O)[C@H](Cc3ccc(OCC(=O)O)cc3)NC2=O)c1 [Compound 1015] ({CH2CO}-HY(Carboxymethyl)D[Phe(3-Me)]Y(Carboxymethyl)[Bip]Y(Carboxymethyl)[Orn][dL][Dab][Cha]VY(X1)C[Dab]-NH2; thioether N-14)
220 nM	Cc1cccc(C[C@@H]2NC(=O)[C@H](CC(=O)O)NC(=O)[C@H](Cc3ccc(OCC(=O)O)cc3)NC(=O)[C@H](CN)NC(=O)CSC[C@@H](C(=O)N[C@@H](CCN)C(=O)NCCOCCOCC(N)=O)NC(=O)[C@H]([C@@H](C)O)NC(=O)[C@H](C(C)C)NC(=O)[C@H](CC3CCCCC3)NC(=O)[C@H](CCN)NC(=O)[C@@H](CC(C)C)NC(=O)[C@H](CCCN)NC(=O)[C@H](COCc3cn(CCOCCOCCOCCOCCOCCOCCOCCOCCOCCOCCOCCNC(=O)CC[C@H](NC(=O)CCCCCCCCCCCCCCCCC(=O)O)C(=O)O)nn3)NC(=O)[C@H](Cc3ccc(-c4ccccc4)cc3)NC(=O)[C@H](Cc3ccc(OCC(=O)O)cc3)NC2=O)c1 [Compound 1042] ({CH2CO}-[Dap]Y(Carboxymethyl)D[Phe(3-Me)]Y(Carboxymethyl)[Bip]S(X1)[Orn][dL][Dab][Cha]VTC[Dab][AEEA]-NH2; thioether N-14)
180 nM	CC(C)C[C@H]1NC(=O)[C@H](C)N(C)C(=O)[C@H](C(C)C)NC(=O)[C@H](Cc2ccc(-c3ccccc3)cc2)NC(=O)[C@H](C(C)C)NC(=O)[C@H](Cc2c[nH]c3ccccc23)NC(=O)[C@H](CC(=O)O)NC(=O)[C@H](Cc2ccc(CNC(=O)CCCCCCCCCCC(=O)O)cc2)NC(=O)[C@H](Cc2ccc(OCC(=O)O)cc2)NC(=O)CSC[C@@H](C(N)=O)NC(=O)[C@H](CO)NC(=O)[C@H](C(C)C)NC(=O)[C@H](CC2CCCCC2)NC(=O)[C@H](CC(N)=O)NC1=O [Compound 1038] ({CH2CO}-Y(Carboxymethyl)[Phe(4-CH2NH2)](C12 diacid)DWV[Bip]V[NMeA][dL]N[Cha]VSC-NH2; thioether N-14)

Structure (SMILES)	IC50
Cc1cccc(C[C@@H]2NC(=O)[C@H](CC(=O)O)NC(=O)[C@H](Cc3ccc(OCC(=O)O)cc3)NC(=O)[C@H](CCCNC(=N)N)NC(=O)CSC[C@@H](C(=O)N[C@@H](CCN)C(N)=O)NC(=O)[C@H](CCC(=O)O)NC(=O)[C@H](C(C)C)NC(=O)[C@H](CC3CCCCC3)NC(=O)[C@H](CCN)NC(=O)[C@@H](CC(C)C)NC(=O)[C@H](CCCN)NC(=O)[C@H](Cc3ccc(OCC(=O)O)cc3)NC(=O)[C@H](Cc3ccc(-c4ccccc4)cc3)NC(=O)[C@H](Cc3ccc(OCc4cn(CCOCCOCCOCCOCCOCCOCCOCCOCCOCCOCCOCCNC(=O)CC[C@H](NC(=O)CCCCCCCCCCCCCCCCC(=O)O)C(=O)O)nn4)cc3)NC2=O)c1 [Compound 1005] ({CH2CO}-RY(Carboxymethyl)D[Phe(3-Me)]Y(X1)[Bip]Y(Carboxymethyl)[Orn][dL][Dab][Cha]VEC[Dab]-NH2; thioether N-14)	39 nM
Cc1cccc(C[C@@H]2NC(=O)[C@H](CC(=O)O)NC(=O)[C@H](Cc3ccc(OCC(=O)O)cc3)NC(=O)[C@H](Cc3c[nH]cn3)NC(=O)CSC[C@@H](C(=O)N[C@@H](CCN)C(N)=O)NC(=O)[C@H](CCC(=O)O)NC(=O)[C@H](C(C)C)NC(=O)[C@H](CC3CCCCC3)NC(=O)[C@H](CCN)NC(=O)[C@@H](CC(C)C)NC(=O)[C@H](CCCN)NC(=O)[C@H](Cc3ccc(OCC(=O)O)cc3)NC(=O)[C@H](Cc3ccc(-c4ccccc4)cc3)NC(=O)[C@H](Cc3ccc(OCc4cn(CCOCCOCCOCCOCCOCCOCCOCCOCCOCCOCCOCCNC(=O)CC[C@H](NC(=O)CCCCCCCCCCCCCCCCC(=O)O)C(=O)O)nn4)cc3)NC2=O)c1 [Compound 1006] ({CH2CO}-HY(Carboxymethyl)D[Phe(3-Me)]Y(X1)[Bip]Y(Carboxymethyl)[Orn][dL][Dab][Cha]VEC[Dab]-NH2; thioether N-14)	55 nM
